Data published in patent US20260258036A1, “INHIBITORS OF HUMAN ALDOSTERONE SYNTHASE (CYP11B2)” («TARGET MEDICALS» LIMITED LIABILITY COMPANY, priority 2022, published 2026).

Molecular target: T1, recombinant CYP11B2 (Homo sapiens, UniProt P19099)
T1 sequence (P19099 25-503): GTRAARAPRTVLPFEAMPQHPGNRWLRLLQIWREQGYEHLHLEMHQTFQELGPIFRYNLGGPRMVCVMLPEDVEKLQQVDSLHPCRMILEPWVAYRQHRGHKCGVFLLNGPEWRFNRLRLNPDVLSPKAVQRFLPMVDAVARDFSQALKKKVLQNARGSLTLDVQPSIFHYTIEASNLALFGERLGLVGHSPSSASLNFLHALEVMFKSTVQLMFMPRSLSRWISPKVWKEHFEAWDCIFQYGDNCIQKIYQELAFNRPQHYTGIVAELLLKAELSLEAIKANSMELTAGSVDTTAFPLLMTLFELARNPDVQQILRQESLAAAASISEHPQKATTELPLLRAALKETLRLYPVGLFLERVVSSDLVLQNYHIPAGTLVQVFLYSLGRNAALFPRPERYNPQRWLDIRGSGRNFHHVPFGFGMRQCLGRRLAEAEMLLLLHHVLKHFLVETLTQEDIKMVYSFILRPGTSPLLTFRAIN
Experiment: Inhibition of CYP11B2 activity in a reconstructed enzyme system (HPLC with UV detector)
Format: biochemical
Details: compounds 1_xx; test compound final concentration ≤2 μM; corticosterone substrate; 30 minutes at 37° C.; read-out: Level of CYP11B2 activity inhibition
Description: The authors of the present invention investigated the activity of the compounds according to the invention as inhibitors of CYP11 B2 when analyzed in a reconstructed system containing 0.5 μm recombinant CYP1 1B2, 0.3 μm human adrenodoxin reductase, 2 μm human adrenodoxin, 100 μm corticosterone as a control reaction to detect the formation of a product with using an HPLC system with a UV detector. The test compound is added to the reaction mixture to a final concentration of ≤2 μM. The concentrated protein mixture was diluted with buffer to a final volume of 0.5 ml, pre-incubated for 10 min at 37° C., followed by the addition of the substrate. Reactions are initiated by adding NADPH (nicotinamide adenine dinucleotide phosphate) to a final concentration of 0.25 mM with a regenerating system (glucose-6-phosphate and glucose-6-phosphate dehydrogenase) in 25 mM potassium phosphate buffer, pH 7.4, containing 0.1 mM DTT (dithiothreitol), 0.1% Tween-20.4 mM MgCl2 and incubated at 37° C. After 30 minutes of incubation, the reaction is stopped by adding 5 ml of dichloromethane. The organic phase is isolated by centrifugation, evaporation, dissolution in ethanol and transferred to a vial for HPLC studies. A C18 Luna 100 Å 250×4, 6 mm column was used on an Agilent Technologies 1200 series instrument (USA) with ethanol as the mobile phase.
Activity (a) is calculated as the amount of product in nmol per minute per 1 nmol of CYP.
where k is the correction factor (k=1 is used as the molar extinction coefficients of steroid substrates and products similar at a detection wavelength of 254 nm), As is the peak area of the substrate, cs is the concentration of the substrate, Ap is the peak area of the product, ce is the concentration of CYP (cytochrome P450), t is the reaction time.
The level of inhibition of CYP11 B2 activity is expressed as a percentage, where 0% is defined as no inhibition in reactions without test compound and 100% is absolute inhibition by test compound.

Row | inhibition at 2 µM [%] | Compound
1 | 50 to 100 | CN1CCN(c2c(F)cc(S(=O)(=O)n3ccc4c(-c5ccc(C#N)nc5)cncc43)cc2F)CC1 [Compound 1_28, 5-(1-((3,5-difluoro-4-(4-methylpiperazin-1-yl)phenyl)sulfonyl)-1H-pyrrolo[2,3-c]pyridin-4-yl)picolinonitrile]
2 | 50 to 100 | CN1CCN(c2c(F)cc(S(=O)(=O)n3ccc4c(-c5ncc(F)cn5)cncc43)cc2F)CC1 [Compound 1_29, 1-((3,5-difluoro-4-(4-methylpiperazin-1-yl)phenyl)sulfonyl)-4-(5-fluoropyrimidin-2-yl)-1H-pyrrolo[2,3-c]pyridine]
3 | 1 to 100 | CNc1cnc(-c2cncc3c2ccn3S(=O)(=O)c2cc(F)c(N3CCN(C)CC3)c(F)c2)cn1 [Compound 1_30, 5-(1-((3,5-difluoro-4-(4-methylpiperazin-1-yl)phenyl)sulfonyl)-1H-pyrrolo[2,3-c]pyridin-4-yl)-N-methylpyrazin-2-amine]
4 | 50 to 100 | CN1CCN(c2c(F)cc(S(=O)(=O)n3ccc4c(-c5ccc(C6CC6)cn5)cncc43)cc2F)CC1 [Compound 1_31, 4-(5-cyclopropylpyridin-2-yl)-1-((3,5-difluoro-4-(4-methylpiperazin-1-yl)phenyl)sulfonyl)-1H-pyrrolo[2,3-c]pyridine]
5 | 50 to 100 | Cc1cnc(-c2cncc3c2ccn3S(=O)(=O)c2cc(F)c(N)c(F)c2)cn1 [Compound 1_32, 2,6-difluoro-4-((4-(5-methylpyrazin-2-yl)-1H-pyrrolo[2,3-c]pyridin-1-yl)sulfonyl)aniline]
6 | 50 to 100 | Cc1ccc(-c2cncc3c2ccn3S(=O)(=O)c2cc(F)c(N(C)C)c(F)c2)nc1 [Compound 1_33, 2,6-difluoro-N,N-dimethyl-4-((4-(5-methylpyridin-2-yl)-1H-pyrrolo[2,3-c]pyridin-1-yl)sulfonyl)aniline]

Same assay, conditions: compounds 2_xx, 3_xx, 4_01; test compound final concentration ≤2 μM; corticosterone substrate; 30 minutes at 37° C.; read-out: Level of CYP11B2 activity inhibition

Row | inhibition at 2 µM [%] | Compound
7 | 35 to 100 | CN1CCN(c2c(F)cc(S(=O)(=O)n3ccc4c(-c5ccccn5)cncc43)cc2F)CC1=O [Compound 2_01, 4-(2,6-difluoro-4-((4-(pyridin-2-yl)-1H-pyrrolo[2,3-c]pyridin-1-yl)sulfonyl)phenyl)-1-methylpiperazin-2-one]
8 | 35 to 100 | O=S(=O)(c1cc(F)c(N2CCN(CC3CC3)CC2)c(F)c1)n1ccc2c(-c3ccccn3)cncc21 [Compound 2_02, 1-((4-(4-(cyclopropylmethyl)piperazin-1-yl)-3,5-difluorophenyl)sulfonyl)-4-(pyridin-2-yl)-1H-pyrrolo[2,3-c]pyridine]
9 | 35 to 100 | CN1CC2CN(c3c(F)cc(S(=O)(=O)n4ccc5c(-c6ccc(C(=O)NC(C)(C)C)nc6)cncc54)cc3F)CC2C1 (stereo not shown) [Compound 2_03, N-(tert-butyl)-5-(1-((3,5-difluoro-4-(5-methylhexahydropyrrolo[3,4-c]pyrrol-2(1H)-yl)phenyl)sulfonyl)-1H-pyrrolo[2,3-c]pyridin-4-yl)picolinamide]
10 | 20 to 100 | O=S(=O)(c1cc(F)c(N2CCNCC2)c(F)c1)n1ccc2c(-c3ccccn3)cncc21 [Compound 3_01, 1-((3,5-difluoro-4-(piperazin-1-yl)phenyl)sulfonyl)-4-(pyridin-2-yl)-1H-pyrrolo[2,3-c]pyridine]
11 | 35 to 100 | CNc1ccc(-c2cncc3c2ccn3S(=O)(=O)c2cc(F)c(N3CCN(C)CC3)c(F)c2)nc1 [Compound 3_02, 6-(1-((3,5-difluoro-4-(4-methylpiperazin-1-yl)phenyl)sulfonyl)-1H-pyrrolo[2,3-c]pyridin-4-yl)-N-methylpyridin-3-amine]
12 | 20 to 100 | CNc1ccc(-c2cncc3c2ccn3S(=O)(=O)c2cc(F)c(N3CCN(C)CC3)c(F)c2)cn1 [Compound 3_03, 5-(1-((3,5-difluoro-4-(4-methylpiperazin-1-yl)phenyl)sulfonyl)-1H-pyrrolo[2,3-c]pyridin-4-yl)-N-methylpyridin-2-amine]
13 | 35 to 100 | CN1CCN(c2c(F)cc(S(=O)(=O)n3ccc4c(-c5cnc(C#N)cn5)cncc43)cc2F)CC1 [Compound 3_05, 5-(1-((3,5-difluoro-4-(4-methylpiperazin-1-yl)phenyl)sulfonyl)-1H-pyrrolo[2,3-c]pyridin-4-yl)pyrazine-2-carbonitrile]
14 | 35 to 100 | CN1CCN(c2c(F)cc(S(=O)(=O)n3ccc4c(-c5ccc(C#N)cn5)cncc43)cc2F)CC1 [Compound 3_06, 6-(1-((3,5-difluoro-4-(4-methylpiperazin-1-yl)phenyl)sulfonyl)-1H-pyrrolo[2,3-c]pyridin-4-yl)nicotinonitrile]
15 | 35 to 100 | CNc1ccc(-c2cncc3c2ccn3S(=O)(=O)c2cc(F)c(N3CCN(C)CC3)c(F)c2)nn1 [Compound 3_07, 6-(1-((3,5-difluoro-4-(4-methylpiperazin-1-yl)phenyl)sulfonyl)-1H-pyrrolo[2,3-c]pyridin-4-yl)-N-methylpyridazin-3-amine]
16 | 20 to 100 | CNc1cnc(-c2cncc3c2ccn3S(=O)(=O)c2cc(F)c(N3CCN(C)CC3)c(F)c2)nc1 [Compound 3_08, 2-(1-((3,5-difluoro-4-(4-methylpiperazin-1-yl)phenyl)sulfonyl)-1H-pyrrolo[2,3-c]pyridin-4-yl)-N-methylpyrimidin-5-amine]
17 | 35 to 100 | CN1CCN(c2c(F)cc(S(=O)(=O)n3ccc4c(-c5cnc(C#N)nc5)cncc43)cc2F)CC1 [Compound 3_09, 5-(1-((3,5-difluoro-4-(4-methylpiperazin-1-yl)phenyl)sulfonyl)-1H-pyrrolo[2,3-c]pyridin-4-yl)pyrimidine-2-carbonitrile]
18 | 35 to 100 | CN1CCN(c2c(F)cc(S(=O)(=O)n3ccc4c(-c5ccc(C#N)nn5)cncc43)cc2F)CC1 [Compound 3_10, 6-(1-((3,5-difluoro-4-(4-methylpiperazin-1-yl)phenyl)sulfonyl)-1H-pyrrolo[2,3-c]pyridin-4-yl)pyridazine-3-carbonitrile]
19 | 35 to 100 | CC(C)N1CCN(c2c(F)cc(S(=O)(=O)n3ccc4c(-c5ccccn5)cncc43)cc2F)CC1 [Compound 3_11, 1-((3,5-difluoro-4-(4-isopropylpiperazin-1-yl)phenyl)sulfonyl)-4-(pyridin-2-yl)-1H-pyrrolo[2,3-c]pyridine]
20 | 20 to 100 | O=S(=O)(c1cc(F)c(N2CCN(C3CC3)CC2)c(F)c1)n1ccc2c(-c3ccccn3)cncc21 [Compound 3_12, 1-((4-(4-cyclopropylpiperazin-1-yl)-3,5-difluorophenyl)sulfonyl)-4-(pyridin-2-yl)-1H-pyrrolo[2,3-c]pyridine]
21 | 35 to 100 | CN1CCCN(c2c(F)cc(S(=O)(=O)n3ccc4c(-c5ccccn5)cncc43)cc2F)CC1 [Compound 3_13, 1-((3,5-difluoro-4-(4-methyl-1,4-diazepan-1-yl)phenyl)sulfonyl)-4-(pyridin-2-yl)-1H-pyrrolo[2,3-c]pyridine]
22 | 35 to 100 | O=S(=O)(c1cc(F)c(N2CCCNCC2)c(F)c1)n1ccc2c(-c3ccccn3)cncc21 [Compound 3_14, 1-((4-(1,4-diazepan-1-yl)-3,5-difluorophenyl)sulfonyl)-4-(pyridin-2-yl)-1H-pyrrolo[2,3-c]pyridine]
23 | 35 to 100 | NC1CCN(c2c(F)cc(S(=O)(=O)n3ccc4c(-c5ccccn5)cncc43)cc2F)CC1 [Compound 3_15, 1-(2,6-difluoro-4-((4-(pyridin-2-yl)-1H-pyrrolo[2,3-c]pyridin-1-yl)sulfonyl)phenyl)piperidin-4-amine]
24 | 35 to 100 | CN1CC2(C1)CN(c1c(F)cc(S(=O)(=O)n3ccc4c(-c5ccccn5)cncc43)cc1F)C2 [Compound 3_16, 1-((3,5-difluoro-4-(6-methyl-2,6-diazaspiro[3.3]heptan-2-yl)phenyl)sulfonyl)-4-(pyridin-2-yl)-1H-pyrrolo[2,3-c]pyridine]
25 | 35 to 100 | CN1CC2CC1CN2c1c(F)cc(S(=O)(=O)n2ccc3c(-c4ccccn4)cncc32)cc1F (stereo not shown) [Compound 3_17, 1-((3,5-difluoro-4-(5-methyl-2,5-diazabicyclo[2.2.1]heptan-2-yl)phenyl)sulfonyl)-4-(pyridin-2-yl)-1H-pyrrolo[2,3-c]pyridine]
